According to patent US12371454B2, “Cyclic peptide compound having Kras inhibitory action” (priority 2019, dated 2025):
Starred links: 1 amine or outer side, 2 acyl side, 3 side chain; linkers in the order of their positions; H or OH if unused. Positions of bridges follow the written chain, without caps; N, C: chain ends. Non-standard residues stand in square brackets, D forms with d. Residues, ends and D or L forms follow the SMILES beside them. *: point of attachment. NMeAbu(3,3-F2-piperidino) = CN[C@@H](CCN1CCCC(F)(F)C1)C(=O)O; hPhe(3-Cl-4-CF3) = N[C@@H](CCc1ccc(C(F)(F)F)c(Cl)c1)C(=O)O; hPhe(3-F,4-CF3) = N[C@@H](CCc1ccc(C(F)(F)F)c(F)c1)C(=O)O; NMePhe(4-CF3) = CN[C@@H](Cc1ccc(C(F)(F)F)cc1)C(=O)O; hPhe(4-CF3) = N[C@@H](CCc1ccc(C(F)(F)F)cc1)C(=O)O; NMePhe(3-CN) = CN[C@@H](Cc1cccc(C#N)c1)C(=O)O; NMePhe(4-Cl) = CN[C@@H](Cc1ccc(Cl)cc1)C(=O)O; NMePhe(3-Me) = CN[C@@H](Cc1cccc(C)c1)C(=O)O; NMePhe(4-Me) = CN[C@@H](Cc1ccc(C)cc1)C(=O)O; NMePhe(2-Me) = CN[C@@H](Cc1ccccc1C)C(=O)O; X32 = O=C(CN(CCN1CCC(F)(F)CC1)[*:1])[*:2]; NMePhe(2-F) = CN[C@@H](Cc1ccccc1F)C(=O)O; NMeGly(cPent) = CN[C@H](C(=O)O)C1CCCC1; Phe(3-I) = N[C@@H](Cc1cccc(I)c1)C(=O)O; Pro(4,4-F2) = O=C(O)[C@@H]1CC(F)(F)CN1; X26 = O=C([C@@H]1CCC[C@H]1N[*:1])[*:2]; NMeY = CN[C@@H](Cc1ccc(O)cc1)C(=O)O; NMeCha = CN[C@@H](CC1CCCCC1)C(=O)O; NMeChg = CN[C@H](C(=O)O)C1CCCCC1; NMeF = CN[C@@H](Cc1ccccc1)C(=O)O; NMeI = CC[C@H](C)[C@H](NC)C(=O)O; N(CH2CH2)2CF2 = FC1(F)CCN(*)CC1; NMeD = CN[C@@H](CC(=O)O)C(=O)O; NMeL = CN[C@@H](CC(C)C)C(=O)O; NMeV = CN[C@H](C(=O)O)C(C)C; d(β3hA) = C[C@@H](N)CC(=O)O; NMeAbu = CC[C@H](NC)C(=O)O; NMeA = CN[C@@H](C)C(=O)O; NMeAib = CNC(C)(C)C(=O)O; Nle = CCCC[C@H](N)C(=O)O; Piperidide = C1CCN(*)CC1; Pra = C#CC[C@H](N)C(=O)O; dNMeA = CN[C@H](C)C(=O)O; Ac5c = NC1(C(=O)O)CCCC1; Aze = O=C(O)[C@@H]1CCN1; Sar = CNCC(=O)O

target: T1, Kras and SOS1 (biotin-tagged human Kras loaded with GDP, His-tagged human SOS1) (Homo sapiens, UniProt P01116, G12D); experiment: Protein-protein interaction inhibition between Kras and SOS1 (KrasGl2D-SOS PPI) using AlphaScreen; type: binding; settings: AlphaScreen; biotin-tagged human Kras loaded with GDP, His-tagged human SOS1; read-out: KRAS G12D-SOS PPI IC50
T1 construct: made in house; host or cells: E. coli (stated for Kras only)
Procedure, shortened: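 Read-out is acceptor-bead light at 520-620 nm, arising when 680 nm-irradiated nickel donor beads pass singlet oxygen to streptavidin acceptors. The bead pair links His-tagged SOS1 with biotin-tagged, GDP-bound Kras from E. coli.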

T1 sequence (P01116 1-188 isoform P01116-2 G12D): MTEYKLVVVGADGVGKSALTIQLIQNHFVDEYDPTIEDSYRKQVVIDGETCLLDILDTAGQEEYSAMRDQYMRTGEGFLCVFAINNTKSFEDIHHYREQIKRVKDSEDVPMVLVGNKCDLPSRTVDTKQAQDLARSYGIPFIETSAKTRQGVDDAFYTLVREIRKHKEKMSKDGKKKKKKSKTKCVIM

SMILES | IC50 [nM]
CC[C@H](C)[C@@H]1NC(=O)[C@H](C)N(C)C(=O)C[C@@H](C(=O)N(C)C)N(C)C(=O)[C@H]([C@@H](C)CC)N(C)C(=O)C2(CCCC2)NC(=O)[C@H](Cc2ccc(OC)cc2)N(C)C(=O)[C@H](CCc2ccc(C(F)(F)F)c(Cl)c2)NC(=O)CN(C)C(=O)[C@H](Cc2ccc(C)cc2)N(C)C(=O)[C@@H]2CCN2C(=O)[C@H](C)N(C)C1=O [Compound 1903] ([NMeA]I[NMeA][Aze][NMePhe(4-Me)][Sar][hPhe(3-Cl-4-CF3)][NMeY](Me)[Ac5c][NMeI][NMeD]-NMe2; lactam N-11) | 4
CC[C@H](C)[C@@H]1NC(=O)[C@H](CC(C)C)N(C)C(=O)C[C@@H](C(=O)N(C)C)N(C)C(=O)[C@H]([C@@H](C)CC)N(C)C(=O)[C@H](C(C)C)NC(=O)[C@H](CCN2CCCC(F)(F)C2)N(C)C(=O)[C@H](CCc2ccc(C(F)(F)F)c(Cl)c2)NC(=O)CN(C)C(=O)[C@H](Cc2ccc(C)cc2)N(C)C(=O)[C@@H]2CCN2C(=O)[C@H](C)N(C)C1=O [Compound 379] ([NMeL]I[NMeA][Aze][NMePhe(4-Me)][Sar][hPhe(3-Cl-4-CF3)][NMeAbu(3,3-F2-piperidino)]V[NMeI][NMeD]-NMe2; lactam N-11) | 13
CCCC[C@@H]1NC(=O)[C@H](Cc2cccc(I)c2)NC(=O)CN(C)C(=O)[C@H](Cc2ccc(Cl)cc2)N(C)C(=O)CN(C)C(=O)CN(C)C(=O)[C@H]([C@@H](C)CC)NC(=O)[C@H](CC(C)C)N(C)C(=O)C[C@@H](C(=O)N2CCCCC2)N(C)C(=O)[C@H](CC(C)C)NC(=O)[C@H](Cc2ccccc2C)N(C)C1=O [Compound 696] ([NMeL]I[Sar][Sar][NMePhe(4-Cl)][Sar][Phe(3-I)][Nle][NMePhe(2-Me)]L[NMeD]-Piperidide; lactam N-11) | 40
CC[C@H](C)[C@@H]1NC(=O)[C@H](CC(C)C)N(C)C(=O)C[C@@H](C(=O)N2CCCCC2)N(C)C(=O)[C@H](C(C)C)N(C)C(=O)C2(CCCC2)NC(=O)[C@@H]2CCCN2C(=O)[C@H](CCc2ccc(C(F)(F)F)c(Cl)c2)NC(=O)CN(C)C(=O)[C@H](Cc2cccc(C#N)c2)N(C)C(=O)CN(C)C(=O)CN(C)C1=O [Compound 710] ([NMeL]I[Sar][Sar][NMePhe(3-CN)][Sar][hPhe(3-Cl-4-CF3)]P[Ac5c][NMeV][NMeD]-Piperidide; lactam N-11) | 4.4
CC[C@H](C)[C@@H]1NC(=O)[C@H](C)N(C)C(=O)C[C@@H](C)NC(=O)[C@H](C2CCCC2)N(C)C(=O)C2(CCCC2)NC(=O)[C@@H]2CCCN2C(=O)[C@H](CCc2ccc(C(F)(F)F)c(Cl)c2)NC(=O)[C@@H](C)N(C)C(=O)[C@H](Cc2ccccc2F)N(C)C(=O)[C@@H]2CCN2C(=O)[C@H](C)N(C)C1=O [Compound 990] (cyclo([Ac5c][NMeGly(cPent)][d(β3hA)][NMeA]I[NMeA][Aze][NMePhe(2-F)][dNMeA][hPhe(3-Cl-4-CF3)]P)) | 83
CC[C@H](C)[C@@H]1NC(=O)[C@H](CC(C)C)N(C)C(=O)C[C@@H](C(=O)N(C)C)N(C)C(=O)[C@H](C(C)C)N(C)C(=O)C2(CCCC2)NC(=O)[C@H](CC(=O)N2CCC(F)(F)CC2)N(C)C(=O)[C@H](CCc2ccc(C(F)(F)F)c(Cl)c2)NC(=O)CN(C)C(=O)[C@H](CC2CCCCC2)N(C)C(=O)CN(C)C(=O)CN(C)C1=O [Compound 218] ([NMeL]I[Sar][Sar][NMeCha][Sar][hPhe(3-Cl-4-CF3)][NMeD](N(CH2CH2)2CF2)[Ac5c][NMeV][NMeD]-NMe2; lactam N-11) | 1.9
CC[C@H](C)[C@@H]1NC(=O)[C@H](CC(C)C)N(C)C(=O)C[C@@H](C(=O)N2CCCCC2)N(C)C(=O)[C@H](C2CCCCC2)N(C)C(=O)C2(CCCC2)NC(=O)[C@@H]2CCCN2C(=O)[C@H](CCc2ccc(C(F)(F)F)c(Cl)c2)NC(=O)CN(C)C(=O)[C@H](CC2CCCCC2)N(C)C(=O)CN(C)C(=O)[C@H](C)N(C)C1=O [Compound 1345] ([NMeL]I[NMeA][Sar][NMeCha][Sar][hPhe(3-Cl-4-CF3)]P[Ac5c][NMeChg][NMeD]-Piperidide; lactam N-11) | 40
CC[C@H](C)[C@@H]1NC(=O)[C@H](C)N(C)C(=O)C[C@@H](C)NC(=O)[C@H](C2CCCC2)N(C)C(=O)C2(CCCC2)NC(=O)[C@@H]2CCCN2C(=O)[C@H](CCc2ccc(C(F)(F)F)c(Cl)c2)NC(=O)[C@@H](C)N(C)C(=O)[C@H](CC2CCCCC2)N(C)C(=O)[C@@H]2CCN2C(=O)[C@H](C)N(C)C1=O [Compound 1510] (cyclo([Ac5c][NMeGly(cPent)][d(β3hA)][NMeA]I[NMeA][Aze][NMeCha][dNMeA][hPhe(3-Cl-4-CF3)]P)) | 110
C#CC[C@@H]1NC(=O)[C@H](CC(C)C)N(C)C(=O)C[C@@H](C(=O)N2CCCCC2)N(C)C(=O)[C@H](C2CCCCC2)N(C)C(=O)C2(CCCC2)NC(=O)[C@@H]2CCCN2C(=O)[C@H](CCc2ccc(C(F)(F)F)c(Cl)c2)NC(=O)CN(C)C(=O)[C@H](CC2CCCCC2)N(C)C(=O)CN(C)C(=O)CN(C)C1=O [Compound 716] ([NMeL][Pra][Sar][Sar][NMeCha][Sar][hPhe(3-Cl-4-CF3)]P[Ac5c][NMeChg][NMeD]-Piperidide; lactam N-11) | 1.1
CC[C@H](C)[C@@H]1NC(=O)[C@H](C)N(C)C(=O)[C@@H]2CCC[C@H]2NC(=O)[C@H](CC(C)C)N(C)C(=O)[C@H](Cc2ccccc2)N(C)C(=O)[C@@H]2CCCN2C(=O)[C@H](CCc2ccc(C(F)(F)F)cc2)NC(=O)CN(C)C(=O)[C@H](Cc2ccc(Cl)cc2)N(C)C(=O)CN(C)C(=O)CN(C)C1=O [Compound 25] (cyclo(I[Sar][Sar][NMePhe(4-Cl)][Sar][hPhe(4-CF3)]P[NMeF][NMeL][X26][NMeA])) | 150
CCCC[C@@H]1NC(=O)[C@H](Cc2cccc(I)c2)NC(=O)CN(C)C(=O)[C@H](Cc2ccc(Cl)cc2)N(C)C(=O)CN(C)C(=O)CN(C)C(=O)[C@H]([C@@H](C)CC)NC(=O)[C@H](CC(C)C)N(C)C(=O)C[C@@H](C(=O)N2CCCCC2)N(C)C(=O)[C@H](CC(C)C)NC(=O)[C@H](Cc2ccc(C(F)(F)F)cc2)N(C)C1=O [Compound 498] ([NMeL]I[Sar][Sar][NMePhe(4-Cl)][Sar][Phe(3-I)][Nle][NMePhe(4-CF3)]L[NMeD]-Piperidide; lactam N-11) | 49
CC[C@H](C)[C@@H]1NC(=O)[C@H](CC(C)C)N(C)C(=O)C[C@@H](C(=O)N2CCCCC2)N(C)C(=O)[C@H](CC(C)C)NC(=O)C(C)(C)N(C)C(=O)[C@H](CC(C)C)NC(=O)[C@H](Cc2cccc(I)c2)NC(=O)CN(C)C(=O)[C@H](Cc2ccc(Cl)cc2)N(C)C(=O)CN(C)C(=O)CN(C)C1=O [Compound 295] ([NMeL]I[Sar][Sar][NMePhe(4-Cl)][Sar][Phe(3-I)]L[NMeAib]L[NMeD]-Piperidide; lactam N-11) | 68
CC[C@H](C)[C@@H]1NC(=O)[C@H](CC(C)C)N(C)C(=O)C[C@@H](C)NC(=O)[C@H](C(C)C)N(C)C(=O)C2(CCCC2)NC(=O)[C@@H]2CCCN2C(=O)[C@H](CCc2ccc(C(F)(F)F)c(Cl)c2)NC(=O)CN(C)C(=O)[C@H](CC2CCCCC2)N(C)C(=O)CN(C)C(=O)CN(CCN2CCC(F)(F)CC2)C1=O [Compound 635] (cyclo([Ac5c][NMeV][d(β3hA)][NMeL]I[X32][Sar][NMeCha][Sar][hPhe(3-Cl-4-CF3)]P)) | 190
CC[C@H](C)[C@@H]1NC(=O)[C@H](CC(C)C)N(C)C(=O)C[C@@H](C(=O)N2CCCCC2)N(C)C(=O)[C@H](C2CCCCC2)N(C)C(=O)C2(CCCC2)NC(=O)[C@@H]2CCCN2C(=O)[C@H](CCc2ccc(C(F)(F)F)c(Cl)c2)NC(=O)CN(C)C(=O)[C@H](CC)N(C)C(=O)CN(C)C(=O)CN(C)C1=O [Compound 1743] ([NMeL]I[Sar][Sar][NMeAbu][Sar][hPhe(3-Cl-4-CF3)]P[Ac5c][NMeChg][NMeD]-Piperidide; lactam N-11) | 1.3
CC[C@H](C)[C@@H]1NC(=O)[C@H](CC(C)C)N(C)C(=O)C[C@@H](C)NC(=O)[C@H](CC(C)C)N(C)C(=O)C2(CCCC2)NC(=O)[C@@H]2CC(F)(F)CN2C(=O)[C@H](CCc2ccc(C(F)(F)F)c(F)c2)NC(=O)CN(C)C(=O)[C@H](CC2CCCCC2)N(C)C(=O)CN(C)C(=O)CN(C)C1=O [Compound 1509] (cyclo([Ac5c][NMeL][d(β3hA)][NMeL]I[Sar][Sar][NMeCha][Sar][hPhe(3-F,4-CF3)][Pro(4,4-F2)])) | 23
CC[C@H](C)[C@@H]1NC(=O)[C@H](CC(C)C)N(C)C(=O)C[C@@H](C(=O)N(C)C)N(C)C(=O)[C@H](C2CCCC2)N(C)C(=O)[C@H](C(C)C)NC(=O)[C@@H](C)NC(=O)[C@H](CCc2ccc(C(F)(F)F)c(Cl)c2)NC(=O)CN(C)C(=O)[C@H](CC2CCCCC2)N(C)C(=O)[C@@H]2CCN2C(=O)[C@H](C)N(C)C1=O [Compound 24] ([NMeL]I[NMeA][Aze][NMeCha][Sar][hPhe(3-Cl-4-CF3)][dA]V[NMeGly(cPent)][NMeD]-NMe2; lactam N-11) | 25
CC[C@H](C)[C@@H]1NC(=O)[C@H](C)N(C)C(=O)C[C@@H](C)NC(=O)[C@H](C(C)C)N(C)C(=O)C2(CCCC2)NC(=O)[C@@H]2CCCN2C(=O)[C@H](CCc2ccc(C(F)(F)F)c(Cl)c2)NC(=O)[C@H]2CCCN2C(=O)[C@H](CC2CCCCC2)N(C)C(=O)[C@@H]2CCN2C(=O)CN(C)C1=O [Compound 77] (cyclo([Ac5c][NMeV][d(β3hA)][NMeA]I[Sar][Aze][NMeCha][dP][hPhe(3-Cl-4-CF3)]P)) | 100
CC[C@H](C)[C@@H]1NC(=O)[C@H](CC(C)C)N(C)C(=O)C[C@@H](C)NC(=O)[C@H](C(C)C)N(C)C(=O)C2(CCCC2)NC(=O)[C@@H]2CCCN2C(=O)[C@H](CCc2ccc(C(F)(F)F)c(Cl)c2)NC(=O)CN(C)C(=O)[C@H](Cc2cccc(C)c2)N(C)C(=O)CN(C)C(=O)CN(C)C1=O [Compound 1547] (cyclo([Ac5c][NMeV][d(β3hA)][NMeL]I[Sar][Sar][NMePhe(3-Me)][Sar][hPhe(3-Cl-4-CF3)]P)) | 22
